Legend:
[1] = target: T1, Fatty-acid amide hydrolase 1 (Rattus norvegicus, UniProt P97612); assay: Inhibitory constant determined against recombinant Fatty-acid amide hydrolase from rat expressed in Escherichia coli
T1 sequence (P97612 whole entry): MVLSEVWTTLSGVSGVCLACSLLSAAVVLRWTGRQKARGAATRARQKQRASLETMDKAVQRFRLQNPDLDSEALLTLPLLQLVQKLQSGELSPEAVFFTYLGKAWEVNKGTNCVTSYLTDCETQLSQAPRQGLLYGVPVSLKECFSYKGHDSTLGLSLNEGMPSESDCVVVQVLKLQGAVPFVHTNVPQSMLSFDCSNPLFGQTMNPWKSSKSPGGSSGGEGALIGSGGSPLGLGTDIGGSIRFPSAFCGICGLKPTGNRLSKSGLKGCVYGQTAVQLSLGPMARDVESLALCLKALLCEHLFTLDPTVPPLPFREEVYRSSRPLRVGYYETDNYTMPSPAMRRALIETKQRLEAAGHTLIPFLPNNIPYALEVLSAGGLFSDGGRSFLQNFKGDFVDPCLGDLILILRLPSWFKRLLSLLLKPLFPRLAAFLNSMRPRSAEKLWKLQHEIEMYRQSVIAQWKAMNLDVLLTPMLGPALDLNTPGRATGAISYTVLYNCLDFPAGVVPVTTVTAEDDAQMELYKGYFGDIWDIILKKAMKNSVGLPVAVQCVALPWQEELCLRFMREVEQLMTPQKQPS

[2] = target: T2, Fatty-acid amide hydrolase 1 (Homo sapiens, UniProt O00519); assay: Inhibitory concentration against Fatty-acid amide hydrolase
T2 sequence (O00519 whole entry): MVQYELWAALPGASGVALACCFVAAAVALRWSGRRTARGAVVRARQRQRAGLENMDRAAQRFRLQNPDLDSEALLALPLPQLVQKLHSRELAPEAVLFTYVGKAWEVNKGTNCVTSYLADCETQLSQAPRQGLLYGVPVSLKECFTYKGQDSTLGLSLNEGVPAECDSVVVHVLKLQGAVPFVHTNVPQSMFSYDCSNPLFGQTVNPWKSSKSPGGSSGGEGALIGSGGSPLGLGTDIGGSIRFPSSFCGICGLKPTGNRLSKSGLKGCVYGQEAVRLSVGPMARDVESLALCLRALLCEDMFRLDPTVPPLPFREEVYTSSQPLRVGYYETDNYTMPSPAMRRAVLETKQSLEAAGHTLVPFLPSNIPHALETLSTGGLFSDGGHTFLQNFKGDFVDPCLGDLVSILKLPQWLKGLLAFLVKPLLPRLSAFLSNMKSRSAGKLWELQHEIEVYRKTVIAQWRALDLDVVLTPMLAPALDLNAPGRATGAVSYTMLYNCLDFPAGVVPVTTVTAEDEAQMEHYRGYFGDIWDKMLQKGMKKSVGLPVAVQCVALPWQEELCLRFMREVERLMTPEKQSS

Liver carboxylesterase 1 = target: T3, Liver carboxylesterase 1 (Homo sapiens, UniProt P23141); assay: Inhibitory concentration against Triacylglycerol hydrolase
T3 sequence (P23141 whole entry): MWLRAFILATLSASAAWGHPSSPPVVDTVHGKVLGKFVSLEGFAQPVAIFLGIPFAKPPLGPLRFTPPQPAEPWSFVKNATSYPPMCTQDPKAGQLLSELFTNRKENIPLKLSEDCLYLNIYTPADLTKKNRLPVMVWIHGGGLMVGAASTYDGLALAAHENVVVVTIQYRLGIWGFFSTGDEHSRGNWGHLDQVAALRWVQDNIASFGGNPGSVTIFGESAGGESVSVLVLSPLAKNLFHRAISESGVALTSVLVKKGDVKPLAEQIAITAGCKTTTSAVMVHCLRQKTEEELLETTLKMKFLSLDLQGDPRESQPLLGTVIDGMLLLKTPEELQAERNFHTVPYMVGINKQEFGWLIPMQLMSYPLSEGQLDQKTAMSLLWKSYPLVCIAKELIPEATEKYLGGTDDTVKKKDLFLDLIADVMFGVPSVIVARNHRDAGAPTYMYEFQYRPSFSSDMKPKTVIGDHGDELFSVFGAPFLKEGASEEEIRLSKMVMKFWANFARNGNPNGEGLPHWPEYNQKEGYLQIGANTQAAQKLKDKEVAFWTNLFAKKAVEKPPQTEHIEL

[3] = Inhibitory concentration against KIAA1363 hydrolase
[4] = target: T2, Fatty-acid amide hydrolase 1; assay: Inhibitory constant determined against recombinant Fatty-acid amide hydrolase from human expressed in COS-7 cells; assay type: cell-based

| SMILES | Ki [1] | further results |
| --- | --- | --- |
| CCCCCCCC/C=C\CCCCCCCC(=O)c1nc(-c2ncccn2)co1 | 16 nM | – |
| CCCCCCCC/C=C\CCCCCCCC(=O)c1ncc(-c2cccnn2)o1 | 14 nM | – |
| CCCCC(=O)c1ncc(-c2ccccn2)o1 | 3000 nM | – |
| O=C(CCCCCCc1ccccc1)c1ncc(-c2cncnc2)o1 | 22 nM | – |
| O=C(CCCCCc1ccccc1)c1nc2ncccc2o1 | 0.2 nM | IC50 [3]: 10000 nM |
| O=C(CCCCCCc1ccccc1)c1ncc(-c2ncco2)o1 | 4.6 nM | – |
| CCCCCCCC/C=C\CCCCCCCC(=O)c1ncc(-c2nccn2C)o1 | 47 nM | – |
| C#CCCCCCCCC(=O)c1ncc(-c2ccccn2)o1 | 23 nM | – |
| O=C(CCCC#Cc1ccccc1)c1ncc(-c2ccccn2)o1 | 21 nM | – |
| C[Si](C)(C)C#CCCCCC(=O)c1ncc(-c2ccccn2)o1 | 200 nM | – |
| O=C(CCCCCCc1ccccc1)c1ncc(-c2ccccn2)o1 | – | IC50 [3]: > 100000 nM |
| OC(CCCCCCc1ccccc1)c1ncc(-c2ncccn2)o1 (centres undefined) | 5900 nM | – |
| CCC(=O)c1ncc(-c2ccccn2)o1 | 48000 nM | – |
| OC(CCCCCCc1ccccc1)c1ncc(-c2cccnn2)o1 (centres undefined) | 4300 nM | – |
| O=C(CCc1ccccc1)c1ncc(-c2ccccn2)o1 | 200 nM | – |
| O=C(CCCCCCc1ccccc1)c1ncc(-c2nccs2)o1 | 5.8 nM | – |
| CCCCCCCCCCCC(=O)c1ncc(-c2ccccn2)o1 | 2.2 nM | – |
| O=C(CCCCCCc1ccccc1)c1ncc(-c2ccncn2)o1 | 2.3 nM | – |
| CCCCCCCC/C=C\CCCCCCCC(=O)c1ncc(-c2ccsc2)o1 | 13200 nM | – |
| CCCCCCC(=O)c1ncc(-c2ccccn2)o1 | 170 nM | – |
| CCCCCC(=O)c1ncc(-c2ccccn2)o1 | 940 nM | – |
| CCCCCCCC/C=C\CCCCCCCC(=O)c1nc2ccccc2o1 | 370 nM | IC50 [3]: > 100000 nM |

| SMILES | Ki [1] | further results |
| --- | --- | --- |
| O=C(Cc1ccccc1)C(F)(F)F | – | IC50 [2]: > 100000 nM; IC50 (Liver carboxylesterase 1): 10 nM; IC50 [3]: 10000 nM |
| O=C(c1ccccc1)C(F)(F)F | – | IC50 [2]: > 100000 nM; IC50 (Liver carboxylesterase 1): 4 nM; IC50 [3]: 10000 nM |
| CCCCCCCC/C=C\CCCCCCCC(=O)c1nc2ncccc2o1 | 2.3 nM | IC50 [3]: 60000 nM |
| O=C(Cc1ccccc1)c1ncc(-c2ccccn2)o1 | 17000 nM | – |
| CCCCCCCC/C=C\CCCCCCCC(=O)c1nc(-c2ccccn2)co1 | 31 nM | – |
| O=C(CCCCCc1ccccc1)c1nc2ccccc2o1 | – | IC50 [3]: > 100000 nM |
| O=C(CCCCCc1ccccc1)c1ncc(-c2ccccn2)o1 | 11 nM | – |
| O=C(CCCCCCc1ccccc1)c1nc2ncccc2o1 | 0.28 nM | IC50 [3]: 20000 nM |
| O=C(CCCCc1ccccc1)c1ncc(-c2ccccn2)o1 | 33 nM | – |
| O=C(CCCCCCc1ccccc1)c1ncc(-c2ncccn2)o1 | 4.6 nM | – |
| CCCC(=O)c1ncc(-c2ccccn2)o1 | 11000 nM | – |
| CCCCCCCC/C=C\CCCCCCCC(=O)c1ncco1 | – | Ki [4]: 45 nM; IC50 [3]: > 100000 nM |
| O=C(CCCCCc1ccccc1)C(F)(F)F | – | IC50 [3]: 800 nM |
| CCCCCCCC/C=C\CCCCCCCC(=O)C(F)(F)F | 80 nM | IC50 [2]: 4500 nM; IC50 (Liver carboxylesterase 1): 4800 nM; IC50 [3]: 1100 nM |
| CCCCCCCC/C=C\CCCCCCCC(=O)c1ncc(-c2ccccn2)o1 | – | Ki [4]: 10 nM; IC50 [2]: 150 nM; IC50 (Liver carboxylesterase 1): > 100000 nM; IC50 [3]: > 100000 nM |
| CCCCCCCCCCCCCCCCCC(=O)C(F)(F)F | – | IC50 [3]: 6600 nM |
| CCCCCCCCCC(=O)C(F)(F)F | – | IC50 [3]: 400 nM |
| CCCCCCCCCCCC(=O)C(F)(F)F | – | IC50 (Liver carboxylesterase 1): 60 nM; IC50 [3]: 500 nM |
| O=C(CCCCCCc1ccccc1)C(F)(F)F | – | IC50 [3]: 200 nM |
| O=C(CCCCCCCc1ccccc1)C(F)(F)F | – | IC50 [3]: 200 nM |
| CCCCCCCC(=O)C(F)(F)F | – | IC50 [3]: 1500 nM |

The next lines start with results.

| Ki [1] | SMILES | further results |
| --- | --- | --- |
| 3800 nM | CCCCCCCC/C=C\CCCCCCCC(=O)c1nc(C)c(C)o1 | – |
| 610 nM | CCCCCCCC/C=C\CCCCCCCC(=O)c1ncc(-c2ccoc2)o1 | – |
| 10 nM | CCCCCCCCC#CCCCCCCCC(=O)c1ncc(-c2ccccn2)o1 | IC50 [2]: 20 nM; IC50 (Liver carboxylesterase 1): 30000 nM; IC50 [3]: > 100000 nM |
| 59 nM | CCCCCCCCCCCCCCCCCC(=O)c1ncc(-c2ccccn2)o1 | – |
| 49 nM | CCCCCCCC(=O)c1ncc(-c2ccccn2)o1 | – |
| 22 nM | O=C(CCCCCCCCCCc1ccccc1)c1ncc(-c2ccccn2)o1 | – |
| 0.14 nM | CCCCCCCCC#CCCCCCCCC(=O)c1nc2ncccc2o1 | IC50 [2]: 2 nM; IC50 (Liver carboxylesterase 1): 500 nM; IC50 [3]: 20000 nM |
| 1300 nM | C#CCCCCC(=O)c1ncc(-c2ccccn2)o1 | – |
| 21 nM | CCCCCCCCCCCCCCCC(=O)c1ncc(-c2ccccn2)o1 | – |
| 13 nM | CCCCCCCCCCCCCC(=O)c1ncc(-c2ccccn2)o1 | – |
| 12 nM | CCCCCCCC/C=C\CCCCCCCC(=O)c1ncc(-c2ncco2)o1 | – |
| 9 nM | CCCCCCCCCC(=O)c1ncc(-c2ccccn2)o1 | – |
| 41 nM | CCCCCCCC/C=C\CCCCCCCC(=O)c1nc(-c2cccnc2)co1 | – |
| 10 nM | O=C(CCCCCCCCCc1ccccc1)c1ncc(-c2ccccn2)o1 | – |
| 23200 nM | CCCCCCCC/C=C\CCCCCCCCc1ncc(-c2ccccn2)o1 | – |
| 56 nM | CCCCCCCC/C=C\CCCCCCCC(=O)c1ncc(-c2ccncc2)o1 | – |
| 7.8 nM | O=C(CCCCCCCCc1ccccc1)c1ncc(-c2ccccn2)o1 | – |
| 16 nM | CCCCCCCC/C=C\CCCCCCCC(=O)c1nc(-c2ccncn2)co1 | – |
| > 100000 nM | CCCCCCCC/C=C\CCCCCCCC(=O)c1nc(-c2ccccc2)c(-c2ccccc2)o1 | – |
| > 100000 nM | CC(=O)c1ncc(-c2ccccn2)o1 | – |

| Ki [1] | SMILES | further results |
| --- | --- | --- |
| 490 nM | CCCCCCCC/C=C\CCCCCCCC(=O)c1nc(-c2ccccc2)co1 | – |
| 78 nM | CCCCCCCC/C=C\CCCCCCCC(=O)c1nc(-c2ccncc2)co1 | – |
| 3300 nM | OC(CCCCCCc1ccccc1)c1ncc(-c2ccccn2)o1 (centres undefined) | – |
| 10600 nM | CCCCCCCC/C=C\CCCCCCCC(O)c1ncc(-c2ccccn2)o1 (centres undefined) | – |
| 16 nM | CCCCCCCC/C=C\CCCCCCCC(=O)c1ncc(-c2nccs2)o1 | – |
| 7.5 nM | O=C(CCCCCCCc1ccccc1)c1ncc(-c2ccccn2)o1 | – |
| 8600 nM | CCCCCCCC/C=C\CCCCCCCC(=O)c1ncc(-c2cccn2C)o1 | – |
| 15 nM | CCCCCCCCC(=O)c1ncc(-c2ccccn2)o1 | – |
| 5.3 nM | O=C(CCCCCCc1ccccc1)c1ncc(-c2cnccn2)o1 | – |
| 890 nM | CCCCCCCC/C=C\CCCCCCCC(=O)c1ncc(-c2cccs2)o1 | – |
| 18 nM | CCCCCCCC/C=C\CCCCCCCC(=O)c1ncc(-c2cnccn2)o1 | – |
| 3.3 nM | CCCCCCCCCCC(=O)c1ncc(-c2ccccn2)o1 | – |
| 5.6 nM | O=C(CCCCCCc1ccccc1)c1ncc(-c2cccnn2)o1 | – |
| 20000 nM | c1ccc(CCCCCCCc2ncc(-c3ccccn3)o2)cc1 | – |
| 20 nM | O=C(CCCCC#Cc1ccccc1)c1ncc(-c2ccccn2)o1 | – |
| 61 nM | CCCCCCCC/C=C\CCCCCCCC(=O)c1ncc(-c2cccnc2)o1 | – |
| 120 nM | O=C(CCCc1ccccc1)c1ncc(-c2ccccn2)o1 | – |
| 11 nM | C=CCCCCCCCC(=O)c1ncc(-c2ccccn2)o1 | – |
| 320 nM | CCCCCCCC/C=C\CCCCCCCC(=O)c1ncc(-c2ccccc2)o1 | – |
